Patent publication EP4722213A1, “NITROGEN-CONTAINING FUNCTIONAL GROUP-SUBSTITUTED PYRIDAZINOPYRIDONE DERIVATIVE AND USE THEREOF” (Sichuan Huiyu Pharmaceutical Co., Ltd., priority 2023, dated 2024)
Where two headings read alike, the source gives them in different places.

What was measured:
CYP2C19 = target: T1, CYP2C19 (Homo sapiens, UniProt P33261); experiment: Inhibition of hepatic drug-metabolizing enzymes in human liver microsomes; type: in vitro ADME; settings: human liver microsomes; read-out: Inhibitory activity on drug-metabolizing enzymes (IC50, µM) CYP2C19
T1 construct: human liver microsomes were used as the CYP450 enzyme source; from tissue; host or cells: human liver microsomes
Text: (§1) The main site of drug metabolism is the liver, and the main component of the mixed-function oxidase system present in the liver is the CYP450 enzyme. This enzyme system causes most clinically observed drug-drug interactions, which in turn leads to an increased incidence of adverse drug reactions. CYP450 is a group of supergene family composed of many isozymes, wherein CYP3A4 acts as a major metabolizing enzyme and is involved in the metabolism of nearly half of clinically used drugs. Similarly, CYP2C9 and CYP2C19 also act as important metabolizing enzymes and are involved in the metabolism of various drugs clinically. Therefore, evaluating the risk of drug-drug interactions by testing the inhibitory activity of compounds on CYP450 enzymes at an early stage can improve the safety of medication use.
(§2) In the present disclosure, human liver microsomes were used as the CYP450 enzyme source. The specific probe substrates for each CYP isoenzyme (wherein CYP3A4 used two substrates, midazolam and testosterone, denoted as CYP3A4-M and CYP3A4-T respectively) were incubated with a series of concentrations of the test compound in the presence of the cofactor NADPH. The production amount of metabolites of probe substrates in the incubation system was determined by LC-MS/MS, and the IC50 values of the test compound against each CYP450 enzyme subtype were calculated to evaluate its inhibitory effect on each CYP450 enzyme subtype. During the experiment, 49 µL of PBS, 50 µL of probe substrate, and 50 µL of human liver microsome working solution were sequentially added to the incubation system, followed by the addition of 1 µL of the test compound working solution at each concentration, and the mixture was mixed well. After pre-incubation at 37°C for 5 min, 50 µL of NADPH was added to initiate the reaction. After incubation for the corresponding time, an appropriate amount of ice-cold acetonitrile containing an internal standard was added to terminate the reaction. The mixture was vortexed to mix well, centrifuged, and the supernatant was taken. The supernatant was injected into LC-MS/MS to determine the production amount of metabolites of the probe substrate. Taking the enzyme activity at the 0-concentration point (characterized by the production amount of metabolites) as 100%, the percentage of residual enzyme activity of metabolites at different concentrations of the test compound was calculated. IC50 was calculated by the residual enzyme activity using Graphpad Prism software.

CYP2C9 = target: T2, CYP2C9 (Homo sapiens, UniProt P11712); experiment: as above; type: in vitro ADME; settings: human liver microsomes; read-out: Inhibitory activity on drug-metabolizing enzymes (IC50, µM) CYP2C9
T2 construct: human liver microsomes were used as the CYP450 enzyme source; from tissue; host or cells: human liver microsomes
Text: as §1, §2

CYP3A4 = target: T3, CYP3A4 (Homo sapiens, UniProt P08684); experiment: Inhibition of hepatic drug-metabolizing enzymes in human liver microsomes (substrates midazolam and testosterone); type: in vitro ADME
T3 construct: human liver microsomes were used as the CYP450 enzyme source; from tissue; host or cells: human liver microsomes
Text: as §1, §2

[1] = Rat liver microsomal metabolic stability; type: in vitro ADME; settings: rat liver microsomes; for half-life at 1 µM: NADPH, 37°C; for CLint scaled at 1 µM: calculated from T1/2, fu defaulted to 1, read-out: CL(liver)
Text: Metabolic stability affects the clearance rate, half-life, and oral bioavailability of compounds in the body, and is one of the most important ADME drug-like properties of compounds. Hepatocyte microsomal stability assay is a commonly used method for studying metabolic stability. In the present disclosure, rat liver microsomes are used to determine and investigate the metabolic stability of compounds.
Preparation of compound stock solution: an appropriate amount of the test compound and testosterone was taken, and a 1 mM stock solution was prepared with DMSO, which was stored in a refrigerator at 4°C.
Preparation of compound working solution: The 1 mM compound stock solution was taken respectively, and then diluted to 100 µM with acetonitrile-water (v:v = 1:1) to obtain the working solution.
Preparation of NADPH working solution: an appropriate amount of NADPH was weighed and dissolved in 16 mM MgCl2 to prepare a NADPH working solution with a concentration of 4.0 mM.
Preparation of rat liver microsome working solution: an appropriate amount of rat liver microsomes was taken and diluted with PBS to obtain a liver microsome working solution with a concentration of 1 mg/mL.
In the incubation system, 48 µL of PBS, 100 µL of rat liver microsome working solution, and 2 µL of the test compound working solution were sequentially added and mixed well. After pre-incubation at 37°C for 5 min, 50 µL of NADPH was added to initiate the reaction. After incubation for the corresponding time points, an appropriate amount of ice-cold acetonitrile containing an internal standard was added to terminate the reaction. The mixture was vortexed to mix well, centrifuged, and the supernatant was collected. The supernatant was injected into LC-MS/MS for detection of the residual metabolic amount of the compound.
Softwares of Excel, etc. were used for data processing according to the following formula. Ct = C0 •e^(−ke •t) [formula] when Ct = (1)/(2)C0 [formula] , T1/2 = (Ln2)/(ke) = (0.693)/(ke) [formula] CLint(mic) = (0.693)/(In vitro T1/2)•(1)/(mg/mL microsomal protein in reaction system) [formula] CLint(liver) = CLint(mic) •(mg microsomes)/(g liver)•(g liver)/(kg body weight) [formula] CL(liver) = (CLint(liver)×fu×Qh)/(CLint(liver)×fu+Qh) [formula] fu (unbound fraction in blood) was defaulted to be 1.

SOS1 = target: T4, SOS1 (Homo sapiens, UniProt Q07889); experiment: biochemical
T4 sequence (Q07889 1-1333): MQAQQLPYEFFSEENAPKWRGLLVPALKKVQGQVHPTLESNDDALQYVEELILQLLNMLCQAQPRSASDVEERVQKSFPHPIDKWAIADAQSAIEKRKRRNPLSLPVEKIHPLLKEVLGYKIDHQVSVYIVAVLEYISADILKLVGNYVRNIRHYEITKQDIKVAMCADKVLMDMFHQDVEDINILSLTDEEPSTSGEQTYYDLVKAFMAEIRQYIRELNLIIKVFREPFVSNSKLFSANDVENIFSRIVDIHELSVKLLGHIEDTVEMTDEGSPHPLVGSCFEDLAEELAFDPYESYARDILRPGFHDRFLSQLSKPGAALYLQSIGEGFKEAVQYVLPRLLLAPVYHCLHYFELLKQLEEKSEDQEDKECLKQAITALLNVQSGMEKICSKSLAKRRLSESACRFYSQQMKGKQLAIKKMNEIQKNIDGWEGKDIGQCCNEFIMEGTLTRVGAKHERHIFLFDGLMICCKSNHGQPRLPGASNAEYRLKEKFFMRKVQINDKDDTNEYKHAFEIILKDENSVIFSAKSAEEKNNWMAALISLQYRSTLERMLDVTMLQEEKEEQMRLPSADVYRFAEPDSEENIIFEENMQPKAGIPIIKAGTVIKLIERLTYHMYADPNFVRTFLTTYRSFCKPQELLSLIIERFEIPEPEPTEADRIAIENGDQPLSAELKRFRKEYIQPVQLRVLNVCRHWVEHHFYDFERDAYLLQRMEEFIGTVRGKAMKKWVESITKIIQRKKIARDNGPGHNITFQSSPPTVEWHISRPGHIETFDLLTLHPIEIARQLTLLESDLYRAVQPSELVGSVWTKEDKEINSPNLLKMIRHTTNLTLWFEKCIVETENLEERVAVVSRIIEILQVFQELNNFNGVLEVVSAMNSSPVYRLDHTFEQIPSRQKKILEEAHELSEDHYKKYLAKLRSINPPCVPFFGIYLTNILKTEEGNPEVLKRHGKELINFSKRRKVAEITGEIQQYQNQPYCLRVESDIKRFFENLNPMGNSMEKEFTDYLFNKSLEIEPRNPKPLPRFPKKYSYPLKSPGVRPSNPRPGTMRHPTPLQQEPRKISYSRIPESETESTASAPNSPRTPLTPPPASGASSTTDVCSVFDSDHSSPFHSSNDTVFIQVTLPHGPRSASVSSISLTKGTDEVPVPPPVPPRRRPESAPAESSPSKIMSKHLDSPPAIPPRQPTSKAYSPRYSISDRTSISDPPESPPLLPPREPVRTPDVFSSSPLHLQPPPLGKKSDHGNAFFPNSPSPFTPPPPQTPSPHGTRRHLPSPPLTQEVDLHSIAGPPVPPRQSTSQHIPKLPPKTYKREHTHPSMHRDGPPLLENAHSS

Rat pharmacokinetic test = type: in vivo; settings: plasma, male SD rats, IV 1 mg/kg, PO 5 mg/kg via gavage
Description: Male SD rats, weighing 200-250 g, were used and divided into two groups based on the principle of similar body weight, with 3 rats in each of the IV group and the PO group. The IV group was administered the test compound at a dose of 1 mg/kg via intravenous injection, and the PO group was administered the test compound at a dose of 5 mg/kg via gavage. Whole blood was collected from the IV group respectively before administration and at 0.083, 0.25, 0.5, 1, 2, 4, 6, 8, and 24 h after administration; for the PO group, whole blood was collected before administration and at 0.25, 0.5, 1, 2, 4, 6, 8, and 24 h after administration. The blood samples were placed in K2-EDTA anticoagulant tubes, centrifuged (4°C) within 30 min to separate plasma, and stored at -80°C for subsequent testing. During sample processing, an appropriate amount of acetonitrile containing an internal standard was used for protein precipitation, vortexed, and after centrifugation, the supernatant was taken for injection into LC-MS/MS for detection. Based on the measured plasma drug concentrations, the main pharmacokinetic parameters were calculated to evaluate its pharmacokinetic behavior. The main pharmacokinetic parameters were analyzed by the non-compartmental model using WinNonLin 8.3 software.

[2] = Mouse pharmacokinetic test; type: in vivo; settings: plasma, female Balb/c mice, IV 1 mg/kg, PO 10 mg/kg via gavage
Description: Female Balb/c mice, weighing 19-21 g, were divided into two groups based on the principle of similar body weight, with 9 mice in each of the IV group and the PO group (for cross blood collection). The IV group was administered the test compound at a dose of 1 mg/kg via intravenous injection, and the PO group was administered the test compound at a dose of 10 mg/kg via gavage. Whole blood was collected from the IV group before administration and at 0.083, 0.25, 0.5, 1, 2, 4, 6, 8, and 24 h after administration; for the PO group, whole blood was collected before administration and at 0.25, 0.5, 1, 2, 4, 6, 8, and 24 h after administration. The blood samples were placed in K2-EDTA anticoagulant tubes, centrifuged (4°C) within 30 minutes to separate plasma, and stored at -80°C for subsequent testing. During sample processing, an appropriate amount of acetonitrile containing an internal standard was used for protein precipitation, vortexed, and after centrifugation, the supernatant was taken for injection into LC-MS/MS for detection. Based on the measured plasma drug concentrations, the main pharmacokinetic parameters were calculated to evaluate its pharmacokinetic behavior. The main pharmacokinetic parameters were analyzed by the non-compartmental model using WinNonLin 8.3 software.

[3] = substrate midazolam, read-out: Inhibitory activity on drug-metabolizing enzymes (IC50, µM) CYP3A4-M
[4] = substrate testosterone, read-out: Inhibitory activity on drug-metabolizing enzymes (IC50, µM) CYP3A4-T

T1 sequence (P33261 whole entry): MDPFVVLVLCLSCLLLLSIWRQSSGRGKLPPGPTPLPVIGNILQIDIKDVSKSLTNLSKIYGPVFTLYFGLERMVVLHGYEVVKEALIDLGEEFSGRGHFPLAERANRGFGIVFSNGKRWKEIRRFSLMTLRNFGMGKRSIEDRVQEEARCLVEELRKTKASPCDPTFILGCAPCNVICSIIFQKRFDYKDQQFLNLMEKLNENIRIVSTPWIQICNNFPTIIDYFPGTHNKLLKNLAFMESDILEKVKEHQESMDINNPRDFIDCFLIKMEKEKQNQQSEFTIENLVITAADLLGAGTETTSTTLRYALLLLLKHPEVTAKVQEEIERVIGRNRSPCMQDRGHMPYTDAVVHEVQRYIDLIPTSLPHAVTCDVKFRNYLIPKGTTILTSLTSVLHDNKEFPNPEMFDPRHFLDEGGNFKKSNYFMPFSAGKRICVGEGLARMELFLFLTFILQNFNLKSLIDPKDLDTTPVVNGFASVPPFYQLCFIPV
T2 sequence (P11712 whole entry): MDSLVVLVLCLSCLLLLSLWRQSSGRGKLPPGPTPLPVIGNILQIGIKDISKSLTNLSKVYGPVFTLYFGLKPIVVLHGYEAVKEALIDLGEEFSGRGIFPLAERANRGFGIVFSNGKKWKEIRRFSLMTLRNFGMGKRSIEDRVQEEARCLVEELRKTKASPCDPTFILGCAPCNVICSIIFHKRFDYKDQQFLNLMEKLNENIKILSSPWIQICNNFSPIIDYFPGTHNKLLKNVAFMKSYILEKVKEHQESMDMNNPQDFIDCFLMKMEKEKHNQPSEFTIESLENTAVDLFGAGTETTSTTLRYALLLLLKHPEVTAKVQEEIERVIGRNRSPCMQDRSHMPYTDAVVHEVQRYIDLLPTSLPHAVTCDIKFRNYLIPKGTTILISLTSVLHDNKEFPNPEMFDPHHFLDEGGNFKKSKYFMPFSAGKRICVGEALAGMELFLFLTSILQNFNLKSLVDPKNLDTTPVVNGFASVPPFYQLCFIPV
T3 sequence (P08684 whole entry): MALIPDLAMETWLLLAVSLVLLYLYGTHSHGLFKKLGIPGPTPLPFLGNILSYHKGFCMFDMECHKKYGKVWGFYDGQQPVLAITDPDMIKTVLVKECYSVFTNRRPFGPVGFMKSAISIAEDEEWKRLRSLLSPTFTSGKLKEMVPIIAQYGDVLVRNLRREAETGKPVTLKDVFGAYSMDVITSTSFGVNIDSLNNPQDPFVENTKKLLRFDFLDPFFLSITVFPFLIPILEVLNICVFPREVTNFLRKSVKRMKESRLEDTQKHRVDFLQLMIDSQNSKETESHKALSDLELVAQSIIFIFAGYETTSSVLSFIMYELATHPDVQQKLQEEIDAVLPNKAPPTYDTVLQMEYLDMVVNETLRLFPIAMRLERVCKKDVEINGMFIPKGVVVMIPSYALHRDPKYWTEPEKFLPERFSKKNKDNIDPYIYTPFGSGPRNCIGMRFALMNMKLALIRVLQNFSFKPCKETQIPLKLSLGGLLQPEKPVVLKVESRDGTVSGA

## CNc1nnc(N[C@H](C)c2cccc(C(F)F)c2F)c2cn(C3CC3)c(=O)cc12 [Example 13, (R)-6-cyclopropyl-4-((1-(3-(difluoromethyl)-2-fluorophenyl)ethyl)amino)-1-(methylamino)pyrid o[3,4-d]pyridazin-7(6H)-one]
CYP2C19
  IC50: > 10 µM
CYP2C9
  IC50: > 10 µM
CYP3A4; [3]
  IC50: > 10 µM
CYP3A4; [4]
  IC50: > 10 µM
[1]
  half-life at 1 µM: 3.97 h
  CLint scaled at 1 µM: 8.8 mL/min/kg
SOS1
  IC50: 0.0046 µM

## Cc1c(C#N)cccc1[C@@H](C)Nc1nnc(C)c2cnc(N3CCOCC3)cc12 [MRTX0902, reference compound]
Rat pharmacokinetic test
  bioavailability: 22.6%
CYP2C19
  IC50: 8.62 µM
CYP2C9
  IC50: 4 µM
[2]
  bioavailability: 40.4%
CYP3A4; Inhibitory activity on drug-metabolizing enzymes (IC50, µM) CYP3A4-M, substrate midazolam
  IC50: 6.9 µM
CYP3A4; Inhibitory activity on drug-metabolizing enzymes (IC50, µM) CYP3A4-T, substrate testosterone
  IC50: 8.75 µM
[1]
  half-life at 1 µM: 0.0483 h
  CLint scaled at 1 µM: 51.9 mL/min/kg

## C[C@@H](Nc1nnc(N)c2cc(=O)n(C3(C)CC3)cc12)c1cccc(C(F)F)c1F.O=CO [Example 74, (R)-1-amino-4-((1-(3-(difluoromethyl)-2-fluorophenyl)ethyl)amino)-6-(1-methylcyclopropyl) pyrido[3,4-d]pyridazin-7(6H)-one formate]
CYP2C19
  IC50: > 10 µM
CYP2C9
  IC50: > 10 µM
CYP3A4; [3]
  IC50: > 10 µM
CYP3A4; [4]
  IC50: > 10 µM
[1]
  half-life at 1 µM: > 5 h
  CLint scaled at 1 µM: < 7.23 mL/min/kg
SOS1
  IC50: 0.0046 µM

## C[C@@H](Nc1nnc(N)c2cc(=O)n(C3CC3)cc12)c1cccc(C(F)F)c1F [Example 75, (R)-1-amino-6-cyclopropyl-4-((1-(3-(difluoromethyl)-2-fluorophenyl)ethyl)amino)pyrido[3,4-d]pyridazin-7(6H)-one]
CYP2C19
  IC50: > 10 µM
CYP2C9
  IC50: > 10 µM
CYP3A4; [3]
  IC50: > 10 µM
CYP3A4; [4]
  IC50: > 10 µM
[1]
  half-life at 1 µM: > 5 h
  CLint scaled at 1 µM: < 7.23 mL/min/kg
SOS1
  IC50: 0.0048 µM
